The text below walks through data of US20070009571A1, “Novel haptotactic peptides” (Hadasit Medical Research Services & Development Ltd., priority 1998, published 2007).

“Also recorded” adds a separate entry of the source. Where two headings read alike, the source gives them in different places. Marks after values point to notes of the source that are not given here. No end group written: not given here.

Assay [1] deals with normal human skin fibroblasts (HF). Put plainly: Haptotaxis assay: attachment of ligand-coated sepharose beads (SB) to cultured cells. Conditions: for % Binding of peptide-coated SB to normal cultured cells: percentage of SB-ligand attached to cells by day 4. The assay is classed as cell-based. The method, then:
(§1) Peptides or fibrinogen were covalently bound to CNBr activated sepharose beads (SB) (Pharmacia, Piscataway, N.J.) using techniques previously used to bind albumin, fibrinogen and thrombin. Briefly, CNBr-activated sepharose 4B (Pharmacia) was washed with 1N HCl, and suspended in the coupling buffer (pH 8.3), following the protocol supplied by the manufacturer. The peptides were dialyzed against the coupling buffer to remove Tris. Peptides (1 mg) were not highly water soluble. The peptides were dissolved in 1 mL 70% ethanol or dimethylformamide, and were then mixed into the coupling buffer containing 1 mL CNBr-activated sepharose. The suspension was gently agitated overnight, then centrifuged 500×g to pack the beads. This procedure covalently binds more than 95% of proteins or peptides including fibrinogen or peptides-CαE (SEQ ID NO:3), Cβ (SEQ ID NO:1) and preCγ (SEQ ID NO:2) to the beads determined by Abs280 readings of the solutions.
(§2) The migratory/adhesion response of cells to proteins (such as fibrinogen) or peptides covalently bound to SB was measured as follows. Cells were grown in 6 or 12 well plates to near confluence or in suspension until they covered about ½ to ⅔ of the plate surface. At that point, about […] of a suspension containing 50% v/v SB coated with the test protein or peptide were added to the plate and dispersed by gentle shaking for 1 min. The plate was then returned to the incubator and examined at different times by inverted phase microscopy.
(§3) The SB (naked or ligand bound) sedimented onto the nearly confluent cell layer and occasionally made physical contact with cell membranes on the plate (ascribed to Brownian motion or micro-convection currents). […] Typically, 300 beads (but not less then 200) were counted in each well and the ratio of SB bound to the cells relative to total number SB could be calculated (SB bound/SB total). Counting the percentage of SB attached to the cell surface at different time intervals provided a quantitative assay of the kinetics of the attachment of coated beads to cells. Negative control with uncoated SB or positive controls with SB-fibrinogen were employed with at least 3 wells measured for each. The statistical error was calculated from the square root of the total counts.
(§4) The peptides of the present invention were synthesized and tested in cell culture systems as described above. Essentially, peptides were covalently attached to sepharose beads to form SB-Cα (SEQ ID NO:4), SB-Cβ (SEQ ID NO:1), SB-PreCγ (SEQ ID NO:2), SB-Cγ (SEQ ID NO:5) and SB-CαE (SEQ ID NO:3), respectively, as was fibrinogen to form SB-Fib. The SB-peptide combination was then incubated with cultured cells. […] The haptotactic potency of the peptides is summarized in Table 3 with the percentage of SB-Fib/peptide attached to cells (by day 4) given in columns 2-5 of Table 3.

Assay [2] concerns murine mammary adenocarcinoma cells (EMT-6). Kind of assay: Haptotaxis assay: attachment of ligand-coated SB to cultured cells. The conditions noted are these: percentage of SB-ligand attached to cells by day 4. It is filed as cell-based. As to the method:
as §1, §2, §3, §4

Assay [3] relates to porcine smooth muscle cells (SMC). The assay is described as above. The assay is classed as cell-based. The conditions noted are these: for % Binding of peptide-coated SB to normal cultured cells: percentage of SB-ligand attached to cells by day 4. The method, then: as §1, §2, §3, §4
Assay [4] has as its system normal murine fibroblasts (MF). The description is as above. The assay is classed as cell-based. Conditions: percentage of SB-ligand attached to cells by day 4. The method, then: as §1, §2, §3, §4
The subject of assay [5] is human ovarian carcinoma cells (OV-1063). The assay is described as above. It is filed as cell-based. The conditions noted are these: percentage of SB-ligand attached to cells by day 4. The method, then:
as §1, §2, §3, §4

For assay [6], the system named is bovine aortic endothelial cells (EC, BAEC). Described as above. The assay is classed as cell-based. Conditions: for % Binding of peptide-coated SB to normal cultured cells: percentage of SB-ligand attached to cells by day 4. As to the method:
as §1, §2, §3, §4

Another assay concerns EC cells (BAEC). Put plainly: FACS analysis of binding of FITC-labeled peptides. The assay is classed as cell-based, bovine. Conditions: 10 μg/ml or 100 μg/ml, medium with 0.1% albumin. The method, then:
EC and HF cell monolayers were washed and then incubated with trypsin-versene. Cells were then washed with growth medium and resuspended in medium with 0.1% albumin. FITC-labeled peptide-Cβ (SEQ ID NO:1) was incubated with 5×10^5 EC cells (10 μg/ml or 100 μg/ml) or with 2.5×10^5 HF cells (100 μg/ml) in medium with 0.1% albumin. FITC-labeled peptide-CαE (SEQ ID NO:3) and Cα (SEQ ID NO:4) (10 μg/ml) was incubated with 5×10^5 EC cells in medium with 0.1% albumin. Cells were then washed with PBS and 1% albumin. Cells were resuspended in PBS and 1% albumin and then filtered through a mesh for FACS analysis, in which the FITC tluorescence was measured for each cell.
The control is without FITC-labeled peptide (background fluorescence).
In competition experiments, cells were incubated with various concentrations of unlabeled Cβ (SEQ ID NO:1) for 15 mins, an aliquot of Cβ^FITC (4 mM) was added and the sample was subjected to FACS analysis. […] The Cβ^FITC (SEQ ID NO:1) uptake experiments best fitted a linear-quadratic curve-fit.
On the technique in general: A flow cytometer gives signals particle by particle.

The subject of the next assay is tested cell lines. Kind of assay: Haptotaxis assay, statements over the tested cell lines. The assay is classed as cell-based. Conditions: ligands covalently bound to SB; for haptotactic response / cell binding to SB-ligand, in words: near confluent cell cultures. As to the method:
as §1, §2, §3, §4

The next assay has as its system HF. Kind of assay: Cell proliferation, MTS assay. It is filed as cell-based, human. Conditions: 0.4 nM-4 μM, 96 well plates. The method, then:
Cell proliferation was evaluated by measuring cell density as a function of time by two different colorimetric assays. The MTS colorimetric assay (CellTitre 96 Aqueous Assay by Promega) is based on dehydrogenase conversion of MTS (methyl tetrazolium salt) by viable cells to […] (Ge M. Tang, G., Ryan. T. J. and Malik. A. B., “Fibrinogen degradation product fragment D induces endothelial cell detachment by activation of cell-mediated fibrinolysis”, J. Clin. Inves., 90:2508-2516 (1992)); the methylene blue (MB) assay is based on the staining of monolayer cells after their fixation, and reading the absorbence of the absorbed dye.
The MTS assay for viable cells was performed as follows: 30 μL of freshly prepared MTS/PMS were added to each well; following 2 hrs incubation at 37° C., the plates were placed on a computer driven microplate reader (Anthos HT-II, Salzburg, Austria), programmed to shake the plate for 1 minute before reading the optical density (OD) of the dye at 490 nm. The measurements were repeated following 4 and 6 hours of incubation.
Peptides (Cα (SEQ ID NO:4), […], PreCγ (SEQ ID NO:2) and CαE (SEQ ID NO:3)), up to 1 μg/mL or 100 μg/mL fibrinogen or thrombin (final concentrations) were added to the culture medium and cell numbers were assayed by day 3 using the MTS assay. The change in cell number was compared with that observed versus saline control. Of the 5 peptides tested at dosages up to 10 μg/mL (approximately equimolar to 1 μg/mL fibrinogen), none of the peptides exerted significant effect on cell proliferation (FIG. 7).

Another assay relates to BAEC. Put plainly: Chemotaxis, micro-Boyden chamber assay. It is filed as cell-based, bovine. As to the method: Chemotaxis was evaluated using 48-well plastic Microtaxis micro-Boyden chambers. Polycarbonate filters with pore size of 8 μm were coated with fibronectin for 2 hours at 37° C. Conditioned medium from 3T3 cells served as a positive control. Test solution (26 μl) containing the tested peptides or protein or medium with no additions that served as control were placed in the lower chamber, covered with the filter. 50 μl cell suspension was introduced to the upper chamber of each well. The number of cells/well varied in the range of 5,000-10,000 in different experiments. The device loaded with cells was incubated at 37° C. for 4-5 hours. The filter was then removed and the non-migrating cells on its upper part were carefully wiped off with a damp cotton swab. The filter was fixed in methanol and stained with Accustain (modified Wright stain solution Sigma Diagnostics: St. Lois, Mo.). Cells that crossed or were retained within the filter were counted microscopically at low magnification so that the viewing field corresponded to the whole area of each well. Each experimental variant was performed in duplicated or triplicates and the data from, three successful experiments were normalized to the values of the positive control and averaged.
The chemotactic response of BAEC to a soluble gradient of […], the most haptotactic of the peptides studied was as follows. The results can be seen in FIG. 6. […] A similar, though more moderate, chemotaxis response to Cβ (SEQ ID NO:1) was obtained with HF.

As for “SB-Cγ: peptide Cγ (SEQ ID NO:5) covalently attached to sepharose beads (LTIGEGQQHHLGGAKQAGDV; also: attached to sepharose beads) [reference compound]”, the “% Binding of peptide-coated SB to normal cultured cells” value (from here on “% Binding of peptide-coated SB”) is listed as 2% in assay [1]; 2% in assay [2]; 1% in [3]; 0% in [4]; 0% in assay [5]; 2 to 93* % in assay [6]. Besides, the “cell binding / haptotactic response to SB-ligand, in words” value (shortened to “cell binding / haptotactic response”) in assay [6] is listed as “Variable haptotaxis”.
For “FITC-labeled peptide Cγ: FITC-labeled peptide Cγ (SEQ ID NO:5) (LTIGEGQQHHLGGAKQAGDV; not fully specified (N-terminus); also: FITC label, position not given here) [reference compound]”, the “binding/uptake of FITC-labeled peptide by FACS, in words” value (shortened to “binding/uptake of FITC-labeled peptide”) with EC cells (BAEC) is on record as “bound only slightly (non-specifically)”.
In the case of “RGADYSLRAVRMKIRPLVTQ (Equivalent to the c-erminus of fibrinogen alpha-E-chain) [CαE, haptotactic peptide homologous to the C-terminus of the fibrinogen αE chain, αE 828-847]”, in the assay with tested cell lines, the “haptotactic response / cell binding to SB-ligand, in words” value (“haptotactic response / cell binding” below) is reported as “to a lesser degree; also recorded: significant haptotactic responses”. Moreover, the “proliferative response of HF (MTS proliferation assay)” value (“proliferative response of HF” for short) with HF is on record as “none of these peptides stimulated or inhibited proliferation”.
On to “EADHEGTHSTKRGHAKSRP (Equivalent to the c-terminus of fibrinogen alpha-chain) [Cα, reference compound]”, for which the “binding/uptake of FITC-labeled peptide” value with EC cells (BAEC) is on record as “did not bind”. For the same substance, the “chemotactic response of BAEC, in words” value with BAEC (soluble gradient, up to 40 μg/ml, conditioned medium = 100% chemotaxis) was “elicited no response”. In addition, the “haptotactic response / cell binding” value is “inactive” with tested cell lines and “no cell adhesive effects” in the assay with tested cell lines (listed as peptide-Cα). The “proliferative response of HF” value in the assay with HF is given as “none of these peptides stimulated or inhibited proliferation”.
Regarding “SB-PreCγ: peptide preCγ (SEQ ID NO:2) covalently attached to sepharose beads (KTRWYSMKKTTMKIIPFNRL; also: attached to sepharose beads)”, the “cell lines excepted from binding to SB-ligand (all other tested lines bound)” value in the assay with tested cell lines was “with the exception of OV-1063, keratinocytes and cells derived from a leucocytic lineage”. In assay [1], the “cell binding to SB-ligand, in words” value was “bound” and the “% Binding of peptide-coated SB” value is given as 100%. Also, in [3], the “cell binding to SB-ligand, in words” value was “bound” and the “% Binding of peptide-coated SB” value came to 98%. In addition, in assay [6], the “cell binding / haptotactic response” value is on record as “bound” and the “% Binding of peptide-coated SB” value was 100%.
As to “FITC-labeled peptide Cα: FITC-labeled peptide Cα (SEQ ID NO:4), negative control (EADHEGTHSTKRGHAKSRP; not fully specified (N-terminus); also: FITC label, position not given here) [reference compound]”, the “binding/uptake of FITC-labeled peptide” value in the assay with EC cells (BAEC) is “bound only slightly (non-specifically)”.
Consider “LTIGEGQQHHLGGAKQAGDV (Equivalent to the c-terminus of fibrinogen gamma-chain) [Cγ, control peptide homologous to the C-terminus of the fibrinogen γ chain, γ 392-411, reference compound]”, for which, in the assay with tested cell lines, the “haptotactic response / cell binding” value is “minor negligible activity”. Moreover, in the assay on HF, the “proliferative response of HF” value is listed as “none of these peptides stimulated or inhibited proliferation”. Further, the “cell binding / haptotactic response” value in assay [6] was “only negligible effect”; in assay [6] (listed as peptide Cγ) it was “bound variably”.
Consider “KTRWYSMKKTTMKIIPFNRL (Equivalent to an internal sequence of fibrinogen gamma-chain) [PreCγ]”, for which, in the assay on BAEC (concentrations of up to 40 μM), the “chemotaxis, in words” value was “significant chemotaxis”. The “haptotactic response / cell binding” value in the assay with tested cell lines is on record as “significant haptotactic responses”; in the assay on tested cell lines (listed as preCγ), “highly haptotactic; also recorded: most potent”. The “proliferative response of HF” value with HF is “none of these peptides stimulated or inhibited proliferation”. The “cell binding / haptotactic response” value in assay [6] is on record as “greatest haptotactic response”.
